Values of other authors in PMC7527728, “CPSF6-Dependent Targeting of Speckle-Associated Domains Distinguishes Primate from Nonprimate Lentiviral Integration” (mBio, 2020).

Tests used:
HIV-1 capsid hexamers = tested on: HIV-1 capsid hexamers; set-up: method as in PMID 25518861; conditions: more efficiently than the NTD
A77V capsid nanotubes = conditions: in vitro, as efficiently as WT capsid
Excerpt: (§1) The 5.2% reduction in genic HIV-1 integration targeting in Jurkat CKD cells was noticeably less than the 22.1% reduction in CKO cells (compare Fig. 4A and Fig. 3A). While the reason for this difference is unclear, it seemed possible that the residual level of CPSF6 protein that persisted in CKD cells (Fig. 2D) could be a contributing factor. We accordingly next mapped integration sites of N74D and A77V capsid mutant viruses in Jurkat T cells. N74D and A77V capsid nanotubes bound CPSF6 ∼5% and 30%, respectively, as efficiently as WT capsid complexes in vitro ([43]).

N74D capsid nanotubes = conditions: in vitro
Excerpt: as §1

Substance	binding to capsid hexamers relative to NTD (HIV-1 capsid hexamers)	CPSF6 binding relative to WT capsid complexes (A77V capsid nanotubes) [%]	CPSF6 binding relative to WT capsid complexes (N74D capsid nanotubes) [%]
CPSF6 peptide: CPSF6 peptide binding HIV-1 capsid hexamers, ref 45	approximately 10 -fold		
CPSF6: cleavage and polyadenylation specificity factor 6		~30	~5
